According to BindingDB's records for doi:10.1016/j.bmcl.2009.01.088 (Abbott Laboratories, 2009):

Target: Mitogen-activated protein kinase kinase kinase 8 (Homo sapiens, UniProt P41279)
Test: COT HTRF Assay
Conditions: pH 7.5; 22 °C
Description: The COT direct HTRF assay was carried out using biotin-MEK1 as a substrate. The reaction was carried out in black 96 half-well plates. At designated time points, EDTA was added to quench the reaction. Detection reagents were then added to each well to make anti-phospho-MEK1-Eu antibody and SAXL. The plates were incubated, and then read using the RUBYstar HTRF reader.

Chain of Mitogen-activated protein kinase kinase kinase 8 (P41279 whole entry): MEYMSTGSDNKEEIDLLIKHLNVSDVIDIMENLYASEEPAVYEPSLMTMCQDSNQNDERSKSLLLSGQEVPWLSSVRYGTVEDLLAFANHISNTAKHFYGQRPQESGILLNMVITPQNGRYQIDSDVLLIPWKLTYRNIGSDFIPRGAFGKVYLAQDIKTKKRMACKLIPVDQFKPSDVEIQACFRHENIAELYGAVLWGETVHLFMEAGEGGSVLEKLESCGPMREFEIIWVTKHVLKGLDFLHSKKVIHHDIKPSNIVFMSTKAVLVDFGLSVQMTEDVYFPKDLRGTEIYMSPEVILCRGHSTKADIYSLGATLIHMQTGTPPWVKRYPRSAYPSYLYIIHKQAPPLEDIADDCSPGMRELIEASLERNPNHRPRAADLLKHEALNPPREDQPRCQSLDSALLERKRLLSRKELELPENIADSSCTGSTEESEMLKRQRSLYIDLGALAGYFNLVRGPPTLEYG

IC50: 1000 nM
Compound: O=C(O)c1cc2c(Oc3ccc(I)cc3)cncc2s1
